Format in all cases: in vivo
A short description of series [1]: Mammalian toxicity, oral, Swiss white mice. As to conditions: mouse, in vivo. Here is the method:
(§1) Mammalian toxicity was determined against Swiss white mice.

Series [2] relates to house flies, Musca domestica. Kind of series: Insecticidal activity against house flies (topical on the notum, mortality at 24 h). The conditions noted are these: for LD50: Musca domestica, topical, read-out: House flies LD50. As to the method:
(§2) Representative compounds of the N-aryloxy- and N-alkoxysulfinylcarbamate esters of the invention were tested for insecticidal activity against two insect species, house flies, Musca domestica, and mosquito larvae, Culex pipiens. Stock 1% concentrated solutions of each of the test compounds were made in acetone, and such solutions diluted with acetone to a concentration of 0.001-0.1%. House files were treated topically on the notum by 1 μL of each of the diluted acetone solutions and percent mortality was counted 24 hours after application. Insects were held at a constant temperature of 60° F. Larvicidal activity was determined by applying 1 ml of the acetone solutions in 100 ml of water containing 20 3rd instar mosquito larvae. Results are presented as LD50 in μg/g for house flies and LC50 in ppm for mosquito larvae.

In series [3] the test system is mosquito larvae, Culex pipiens. In words: Larvicidal activity against mosquito larvae. As to conditions: 1 ml acetone solution in 100 ml water containing 20 3rd instar larvae. As to the method: as §2
Series [4] concerns Swiss white mice. In words: Mammalian toxicity, oral, Swiss white mice. As to conditions: compared with aldicarb / carbofuran. As to the method: as §1
Where [5] appears, read: oral, corn oil carrier, read-out: Mice LD50.
Setting [6] is: 1 μL acetone solution on the notum, mortality 24 hours after application, 60° F.

Like-named read-outs stand apart in the source and are kept apart here.

As to `CCCCCCOS(=O)N(C)C(=O)Oc1cccc2c1OC(C)(C)C2` (centres unmarked) [Example I, 2,3-dihydro-2,2-dimethylbenzofuranyl-7(methyl)(hexoxysulfinyl)carbamate], the LD50 in series [1] (setting [5]) was 280 mg/kg; in series [2] (24 h), 13 mg/kg. In series [3], the “Culex LC50” value was found to be 0.0025 ppm.

With `CN(C(=O)Oc1cccc2c1OC(C)(C)C2)S(=O)OC(C)(C)C` (centres unmarked) [II, 2,3-dihydro-2,2-dimethylbenzofuranyl-7(methyl)(t-butoxysulfinyl)carbamate], the LD50 in series [1] (setting [5]) was 40 mg/kg; in series [2] (24 h), 2.2 mg/kg. In addition, the “Culex LC50” value in series [3] came to 0.0058 ppm.

As to `CCCCOS(=O)N(C)C(=O)Oc1cccc2c1OC(C)(C)C2` (centres unmarked) [III, 2,3-dihydro-2,2-dimethylbenzofuranyl-7(methyl)(n-butoxysulfinyl)carbamate], the values for the LD50 in series [1] (setting [5]) and in series [2] (24 h) were 160 mg/kg and 16 mg/kg, respectively.

With `CN(C(=O)Oc1cccc2c1OC(C)(C)C2)S(=O)Oc1ccccc1` (centres unmarked) [IV, 2,3-dihydro-2,2-dimethylbenzofuranyl-7(methyl)(phenoxysulfinyl)carbamate], the LD50 in series [1] (setting [5]) came out at 42 mg/kg; in series [2] (24 h), 6.4 mg/kg. The “Culex LC50” value in series [3] is on record as 0.0055 ppm.

For the compound `CC(C)Oc1ccccc1OC(=O)N(C)S(=O)OC(C)(C)C` (centres unmarked) [IX, 2-isopropoxyphenyl (methyl)(t-butoxysulfinyl)carbamate], the LD50 in series [1] (setting [5]) stood at 400 mg/kg; in series [2] (24 h), 65 mg/kg.

As for `Cc1cccc(C)c1OS(=O)N(C)C(=O)Oc1cccc2c1OC(C)(C)C2` (centres unmarked) [V, 2,3-dihydro-2,2-dimethylbenzofuranyl-7(methyl)(2,6-dimethylphenoxysulfinyl)carbamate], the results for the LD50 in series [1] (setting [5]) and in series [2] (24 h) were 100 mg/kg and 13.5 mg/kg, respectively.

Consider `CCCCOS(=O)N(C)C(=O)Oc1cccc(C(C)C)c1` (centres unmarked) [VI, 3-isopropylphenyl (methyl)(n-butoxysulfinyl)carbamate], for which the LD50 in series [2] (24 h) was determined as 50 mg/kg.

Regarding `CCCCCCOS(=O)N(C)C(=O)Oc1cccc(C(C)C)c1` (centres unmarked) [VII, 3-isopropylphenyl (methyl)(n-hexoxysulfinyl)carbamate], the LD50 in series [1] (setting [5]) was above 1000 mg/kg; in series [2] (24 h) it was 80 mg/kg.

As for `CCCCCCOS(=O)N(C)C(=O)Oc1ccccc1OC(C)C` (centres unmarked) [VIII, 2-isopropoxyphenyl (methyl)(n-hexoxysulfinyl)carbamate], the LD50 in series [1] (setting [5]) was above 1000 mg/kg; in series [2] (24 h), 42 mg/kg. Moreover, in series [3], the “Culex LC50” value is 0.01 ppm.

Take `CCCCCCOS(=O)N(C)C(=O)ON=C(C)SC` (centres unmarked) [X, S-methyl N-[N'-methyl-N'-hexoxysulfinylcarbamoyloxy]thioacetimidate]: the LD50 was 260 mg/kg in series [1] (setting [5]) and 6.5 mg/kg in series [2] (setting [6]).

As for `CCCCOS(=O)N(C)C(=O)ON=C(C)SC` (centres unmarked) [XI, S-methyl N-[N'-methyl-N'-butoxysulfinylcarbamoyloxy]thioacetimidate], the LD50 in series [2] (setting [6]) was 5.5 mg/kg.

For `CCCCCCCCCCOS(=O)N(C)C(=O)ON=CC(C)(C)SC` (centres unmarked) [XII, 2-methyl-2-(methylthio)propionaldehyde O-[(methyl)(decoxysulfinyl)carbamoyl]oxime], the “mammalian safety/toxicity compared with parent carbamate” value in series [4] is given as “much safer to mammals”. Also, the 50% lethal dose (LD50) in series [1] (setting [5]) was 60 mg/kg; in series [2] (setting [6]) it was 11.5 mg/kg. Moreover, the “toxicity to house flies compared with parent carbamate” value in series [2] (compared with aldicarb / carbofuran) is “comparable toxicity”. In addition, the “Culex LC50” value in series [3] amounted to 0.006 ppm.

Consider `CCCCCCOS(=O)N(C)C(=O)Oc1cccc2ccccc12` (centres unmarked) [XIII, 1-naphthyl(methyl)(hexoxysulfinyl)carbamate], for which the LD50 in series [1] (setting [5]) was above 1000 mg/kg; in series [2] (24 h), 360 mg/kg.

On to `CNC(=O)O/N=C/C(C)(C)SC` [aldicarb, 2-methyl-2-(methylthio)propionaldehyde 0-(methylcarbamoyl)oxime, reference compound], for which the LD50 in series [1] (po, comparison value for parent aldicarb, read-out: LD50 (parent carbamate aldicarb, mammalian toxicity, text)) is 0.3 to 0.5 mg/kg.

Broadly, the LD50 is the dose expected to kill half of the subjects tested.

(Values after US4263318A, “N-alkoxy- and N-aryloxysulfinylcarbamate esters” (priority 1979, dated 1981).)
